Experimental findings from patent US20250188037A1, “N-(PYRROLIDIN-3-YL OR PIPERIDIN-4-YL)ACETAMIDE DERIVATIVES” (Takeda Pharmaceutical Company Limited, priority 2022, published 2025) are described below.

Assay [1] concerns the target T1, SSTR4 (Homo sapiens (Human), UniProt P31391). Briefly: Inhibition of forskolin stimulated cAMP in cells overexpressing SSTR4. The note with it: inhibition of forskolin stimulated cAMP in CHO-K1 cells overexpressing SSTR4; read-out: SSTR4 Activity pEC50 (converted). The assay is classed as cell-based. As to the method: Inhibition of Forskolin Stimulated cAMP in Cells Overexpressing SSTR4
This cell-based assay measures the ability of compounds to inhibit forskolin stimulated cAMP in CHO-K1 cells overexpressing SSTR4. CHO-K1 cells overexpressing SSTR4 (CHO-SSTR4) are purchased from DiscoveRx (product code 95-0059C2). The CHO-SSTR4 cells are maintained in F12K media with 10% Fetal Bovine Serum (Hyclone), 1% Pen/Strep (Life Technologies), and 800 μg/mL G418 (Life Technologies). […] The next day, the culture media is removed from the cells and the cells are washed (added then removed) with Krebs Ringer Buffer (ZenBio, KRB-1000 mL). […] The cells are incubated in 10 μL compound/stimulation buffer for 30 minutes at room temperature. Cellular cAMP levels are detected with a HTRF LANCE Ultra cAMP kit (Perkin Elmer, catalog number TRF0264).
The assay is performed in accordance with the manufacturer's instructions. […] of diluted Eu—W8044 labeled streptavidin (dilution: 1:50 in cAMP Detection Buffer) is added to each well. Then 5 μL of diluted biotin cAMP (dilution: 1:150 in cAMP Detection Buffer) is added to each well. The plates are covered and allowed to incubate for 60 minutes at room temperature on a shaker. […] The pEC50 values are generated using Activity Base for Screening Data Management.

The target in assay [2] is T1, SSTR4. Briefly: SSTR4 I-125 somatostatin competition binding assay. The following applies: for SSTR4 Binding pIC50: membranes from CHO-K1 cells overexpressing SSTR4. An excerpt:
The scintillator sheets are melted to filters using a heat block.

A further assay concerns the target SSTR1 (Homo sapiens (Human), UniProt P30872).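 Also: binding assay on CHO-K1 cell membranes overexpressing SSTR1, incubated 60 min at room temperature, bound fraction collected on filters and read by scintillation counting.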

Chain of SSTR1 (P30872 whole entry): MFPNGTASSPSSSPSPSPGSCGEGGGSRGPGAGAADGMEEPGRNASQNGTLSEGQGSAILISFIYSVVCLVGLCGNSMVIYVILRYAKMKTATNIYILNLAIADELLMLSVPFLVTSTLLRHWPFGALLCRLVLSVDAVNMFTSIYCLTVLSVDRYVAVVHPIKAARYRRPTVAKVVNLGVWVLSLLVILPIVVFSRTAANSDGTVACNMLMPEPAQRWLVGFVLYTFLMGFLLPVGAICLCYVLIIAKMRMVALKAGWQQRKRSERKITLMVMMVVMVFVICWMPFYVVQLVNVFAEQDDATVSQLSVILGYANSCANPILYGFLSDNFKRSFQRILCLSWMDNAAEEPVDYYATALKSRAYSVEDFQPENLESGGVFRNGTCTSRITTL
T1 sequence (P31391 whole entry): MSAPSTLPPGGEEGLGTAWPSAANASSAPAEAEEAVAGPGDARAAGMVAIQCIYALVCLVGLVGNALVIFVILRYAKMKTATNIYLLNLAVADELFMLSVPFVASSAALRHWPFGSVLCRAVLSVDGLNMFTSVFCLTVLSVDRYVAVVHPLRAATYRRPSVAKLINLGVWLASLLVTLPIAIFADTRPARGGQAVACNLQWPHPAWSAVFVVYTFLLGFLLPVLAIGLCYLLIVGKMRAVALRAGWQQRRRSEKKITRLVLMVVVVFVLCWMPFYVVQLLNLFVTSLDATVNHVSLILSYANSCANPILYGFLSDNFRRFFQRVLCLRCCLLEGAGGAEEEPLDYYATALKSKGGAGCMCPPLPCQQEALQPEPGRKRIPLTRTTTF
Description for SSTR1: Membranes from CHO-K1 cells overexpressing SSTR1 are purchased from Perkin Elmer (catalog number ES-520-M400UA). […] Then 10 μg of SSTR1 membranes in 50 μL assay buffer are added per well. The plate is incubated for 60 minutes at room temperature. […] The contents of the assay plate are transferred to filters with a TomTech harvester and washed 5 times with 20 mM HEPES, 100 mM NaCl. […] The scintillator sheets are melted to the filters using a heat block. The filters are then read in a MicroBeta scintillation counter. Binding Ki curves are generated using Activity Base for Screening Data Management and the results are reported as pIC50.

On to `CC[C@@H]1CN(C)CC[C@H]1NC(=O)C1(Oc2ccccc2Cl)CC1` (relative stereo) [Example 7, 1-(2-chlorophenoxy)-N-(trans-3-ethyl-1-methylpiperidin-4-yl)cyclopropane-1-carboxamide], for which, at SSTR4 [1], the EC50 was 178 nM.

As to `Cc1ccc(CC2(C(=O)N[C@@H]3CCN(C)C[C@H]3C)CC2)cc1` (relative stereo) [Example 11, N-(trans-1,3-dimethylpiperidin-4-yl)-1-(4-methylbenzyl)cyclopropane-1-carboxamide], the EC50 on SSTR4 [1] was 141 nM.

In the case of `C[C@@H]1CN(C)CC[C@H]1NC(=O)C1(Cc2ccccc2Cl)CC1` (relative stereo) [Example 17, 1-(2-chlorobenzyl)-N-(trans-1,3-dimethylpiperidin-4-yl)cyclopropane-1-carboxamide], the EC50 at SSTR4 [1] is 89.1 nM. In the case of `C[C@@H]1CN(C)CC[C@H]1NC(=O)C1(Cc2cccc(F)c2)CC1` (relative stereo) [Example 20, N-(trans-1,3-dimethylpiperidin-4-yl)-1-(3-fluorobenzyl)cyclopropane-1-carboxamide], the EC50 at SSTR4 [1] was 77.6 nM. The same measure, in the same setting: the value for `CC[C@@H]1CN(C)CC[C@H]1NC(=O)C1(Cc2cccc(C)c2)CC1` (relative stereo) [Example 21, N-(trans-3-ethyl-1-methylpiperidin-4-yl)-1-(3-methylbenzyl)cyclopropane-1-carboxamide] was 42.7 nM. As to `C[C@H]1C[C@@H](NC(=O)C(F)(F)Oc2ccccc2)CCN1` (relative stereo) [Example 50, 2,2-difluoro-N-(cis-2-methylpiperidin-4-yl)-2-phenoxyacetamide], the EC50 on SSTR4 [1] was 57.5 nM. Also, the IC50 on SSTR4 [2] (membranes from CHO-K1 cells overexpressing SSTR4, read-out: SSTR4 Binding pIC50 (converted)) was 1320 nM.

Turning to `Cc1cccc(CC2(C(=O)NC3CN(C)CC3c3ccccc3)CC2)c1` (centres unmarked) [Example 2, N-(1-methyl-4-phenylpyrrolidin-3-yl)-1-(3-methylbenzyl)cyclopropane-1-carboxamide], the EC50 at SSTR4 [1] was 34.7 nM.

Regarding `Cc1cccc(CC2(C(=O)NC3CN(C)CC3C)CC2)c1` (centres unmarked) [Example 6, N-(1,4-dimethylpyrrolidin-3-yl)-1-(3-methylbenzyl)cyclopropane-1-carboxamide], at SSTR4 [1], the EC50 was 31.6 nM. On SSTR1, this molecule had an IC50 of 8320 nM. Moreover, the “SSTR4 Binding pIC50” value at SSTR4 [2] turned out to be 6.55. Take `CC1CC(NC(=O)C2(Oc3ccccc3Cl)CC2)CCN1C` (centres unmarked) [Example 8, 1-(2-chlorophenoxy)-N-(1,2-dimethylpiperidin-4-yl)cyclopropane-1-carboxamide]: the EC50 at SSTR4 [1] is 182 nM. As to `O=C(NC1CCN2CCCC12)C1(Oc2ccccc2Cl)CC1` (centres unmarked) [Example 9, 1-(2-chlorophenoxy)-N-(hexahydro-1H-pyrrolizin-1-yl)cyclopropane-1-carboxamide], on SSTR4 [1], the EC50 is 182 nM.

For `C[C@H]1CNCC[C@@H]1NC(=O)C1(Cc2ccc(F)cc2)CC1` [Example 13, 1-(4-fluorobenzyl)-N-((3S,4S)-3-methylpiperidin-4-yl)cyclopropane-1-carboxamide], the EC50 on SSTR4 [1] is 2.75 nM. In addition, at SSTR1, the IC50 is 8710 nM. On SSTR4 [2], the “SSTR4 Binding pIC50” value is on record as 7.45. In the same order, the values of `O=C(NC1CCNCC1)C(F)(F)Oc1ccccc1` [Example 14, 2,2-difluoro-2-phenoxy-N-(piperidin-4-yl)acetamide] are 67.6 nM, over 50100 nM and 6.39. On to `C[C@H]1CNCC[C@@H]1NC(=O)C1(Cc2ccc(Cl)cc2)CC1` [Example 18, 1-(4-chlorobenzyl)-N-((3S,4S)-3-methylpiperidin-4-yl)cyclopropane-1-carboxamide], for which the EC50 at SSTR4 [1] is 2 nM. The IC50 against SSTR1 was 4680 nM. In addition, the “SSTR4 Binding pIC50” value on SSTR4 [2] was 7.58. On the same counts, the results for `O=C(N[C@H]1CCNC[C@@H]1F)C1(Cc2ccc(Cl)cc2)CC1` [Example 23, 1-(4-chlorobenzyl)-N-((3S,4S)-3-fluoropiperidin-4-yl)cyclopropane-1-carboxamide] are 23.4 nM, 42700 nM and 7.13. On the same counts, the results for `Cc1ccccc1CC1(C(=O)N[C@H]2CCNC[C@@H]2F)CC1` [Example 24, N-((3S,4S)-3-fluoropiperidin-4-yl)-1-(2-methylbenzyl)cyclopropane-1-carboxamide] are 19.5 nM, over 50100 nM and 7.23. In the same order, the values of `C[C@H]1CNCC[C@@H]1NC(=O)C(F)(F)Cc1ccccc1` [Example 26, 2,2-difluoro-N-((3S,4S)-3-methylpiperidin-4-yl)-3-phenylpropanamide] are 14.8 nM, over 50100 nM and 7.15. Turning to `O=C(N[C@H]1CCNC[C@@H]1F)C1(Cc2cccc(Cl)c2)CC1` [Example 27, 1-(3-chlorobenzyl)-N-((3S,4S)-3-fluoropiperidin-4-yl)cyclopropane-1-carboxamide], the EC50 on SSTR4 [1] is 10.2 nM. Further, the IC50 on SSTR1 was over 50100 nM. Further, the “SSTR4 Binding pIC50” value on SSTR4 [2] is listed as 7.25.

On to `CN1CCC(NC(=O)C(F)(F)Oc2ccccc2)CC1` [Example 28, 2,2-difluoro-N-(1-methylpiperidin-4-yl)-2-phenoxyacetamide], for which, on SSTR4 [1], the EC50 was 195 nM.

In the case of `Cc1ccccc1CC1(C(=O)N[C@H]2CCN(C)C[C@@H]2C)CC1` [Example 38, N-((3S,4S)-1,3-dimethylpiperidin-4-yl)-1-(2-methylbenzyl)cyclopropane-1-carboxamide], the EC50 on SSTR4 [1] was 14.1 nM. Same read-out and setting: the value for `CN1CC[C@H](NC(=O)C2(Cc3ccc(Cl)cc3)CC2)[C@@H](F)C1` [Example 39, 1-(4-chlorobenzyl)-N-((3S,4S)-3-fluoro-1-methylpiperidin-4-yl)cyclopropane-1-carboxamide] was 102 nM. On the same count and under the same terms, the value for `C[C@H]1CN(C)CC[C@@H]1NC(=O)C(F)(F)Oc1ccccc1` [Example 40, N-((3S,4S)-1,3-dimethylpiperidin-4-yl)-2,2-difluoro-2-phenoxyacetamide] was 117 nM; that for `O=C(N[C@H]1CCNC[C@@H]1F)C1(Cc2cccc(F)c2)CC1` [Example 44, 1-(3-fluorobenzyl)-N-((3S,4S)-3-fluoropiperidin-4-yl)cyclopropane-1-carboxamide] was 20.4 nM; that for `C[C@@H]1C[C@@H](NC(=O)C(F)(F)Oc2ccccc2)CCN1` [Example 52, 2,2-difluoro-N-((2R,4S)-2-methylpiperidin-4-yl)-2-phenoxyacetamide] was 170 nM. Still for that read-out and setting: the figure for `O=C(N[C@H]1CCNC[C@@H]1F)C1(Oc2cccc(Cl)c2)CC1` [Example 59, 1-(3-chlorophenoxy)-N-((3S,4S)-3-fluoropiperidin-4-yl)cyclopropane-1-carboxamide] is 58.9 nM; for `O=C(N[C@H]1CCNC[C@@H]1F)C1(Oc2ccccc2C2CC2)CC1` [Example 60, 1-(2-cyclopropylphenoxy)-N-((3S,4S)-3-fluoropiperidin-4-yl)cyclopropane-1-carboxamide] it is 174 nM; for `CC(Oc1cccc(Cl)c1Cl)C(=O)N[C@H]1CCNC[C@@H]1F` (stereo partly drawn) [Example 61, 2-(2,3-dichlorophenoxy)-N-((3S,4S)-3-fluoropiperidin-4-yl)propanamide] it is 123 nM. With `CC(Oc1ccccc1Cl)C(=O)N[C@@H]1CCN(C)[C@H](C)C1` (stereo partly drawn) [Example 67, 2-(2-chlorophenoxy)-N-((2R,4R)-1,2-dimethylpiperidin-4-yl)propanamide], the EC50 at SSTR4 [1] was 132 nM.
